Where two headings read alike, the source gives them in different places.
Legend:
[1] = Solubility tests with Photo-caged MALDI Matrix Compounds in solvents/solvent systems; assay type: physicochemical; conditions: for solubility: thermodynamic from solid, read-out: solubility (completely dissolved at 2.5 mg/mL); for solubility in the solvents or solvent systems under review: overall rating from Table 2, Solvents 1-10
Procedure: Photo-caged MALDI Matrix Compounds according to the invention were prepared as described in Example 1 above and tested for solubility in different solvents (including solvent systems). The solvents (including solvent systems) used in this Example 2 are listed here below in Table 1:
Around 1 mg of each Photo-caged MALDI Matrix Compound was weighed into an Eppendorf tube using an analytical balance. The calculated amount of selected solvent was added into the tube to generate a solution at a maximal concentration of 2.5 mg/mL. An ultrasonic bath was used for max. 3 min. to accelerate the dissolving process.
The numbers of the compounds used in this Example 2 refer to the example numbers of Example 1 above. In Table 2 below, the mark “X” in a cell means, that the respective compound was completely dissolved in the respective solvent or solvent system in a concentration of 2.5 mg/mL.

[2] = stated as known; cited from earlier work
[3] = Crystallisation test by spray method; assay type: physicochemical; conditions: on ITO object slide, by scanning electron microscopy
Procedure: The Photo-caged MALDI Matrix Compound of Ex. 1.1 according to the invention was prepared as described in Example 1 above and spray-tested for its crystallization properties in a spraying method on (i) an indium tin-oxide (ITO) object slide and (ii) on a sliced sample of porcine brain.
In each case, a solution of the Photo-caged MALDI Matrix Compound of Ex. 1.1 (concentration 2.5 mg/mL in acetonitrile/water v/v 4/1) was sprayed onto the surfaces of (i) an ITO object slide and (ii) on a sliced sample of porcine brain with a MALDI HTX M5 Sprayer™ (by HTX Technologies, LLC, USA).
The operating parameters applied were as follows: Temperature of spraying nozzle: 50° C./flow rate: 0.06 mL/min/speed of spraying nozzle: 1000 mm/min/spraying distance: 40 mm.
The resulting crystals on (i) an ITO object slide and (FIG. 1 to 3) (ii) on a sliced sample of porcine brain (FIG. 4 to 5) where then analyzed by optical scanning (in 20-fold magnification) and by scanning electron microscopy (in 5000-fold and 10000-fold magnification), as shown in FIG. 1 to 5.

[4] = Additional vacuum stability test, compounds sprayed on ITO slides with porcine brain tissue sections (Example 4a); assay type: physicochemical; conditions: 21 hrs, about 35° C., vacuum up to about 1.4×10^−7 mbar
Procedure: In a separate experiment, frozen porcine brain tissue was sectioned into 10 μm slices using a Leica CM1950 clinical cryostate (Leica Biosystems, Germany) at a chamber temperature of −15° C. and a head temperature of −10° C. The tissue sections were thaw-mounted onto ITO glass slides and dried for 20 min under vacuum. The ITO glass object slides with tissue sections were then sealed and stored at −80° C. until analysis. Shortly before usage, the slides were taken out from the freezer and thawed at room temperature for 20 min. under vacuum.
Photo-caged MALDI Matrix Compounds of Examples Ex. 1.1 (DMNB-2,5-DHAP), 1.7 (CNB-2,5-DHAP), 1.8 (PMNB-2,5-DHAP) and 1.9 (DMNBC-2,5 DHAP) were dissolved (Ex. 1.1: 2.5 mg/mL in standard solvent according to table 2 above; Ex.: 1.7 and 1.8:2.5 mg/mL in acetonitrile/water 7:3 (v/v)+0.1% trifluoroacetic acid; Ex. 1.9: saturated solution <2.5 mg/mL in acetonitrile/water 8:2 (v/v)+0.1% trifluoroacetic acid) and sprayed onto the ITO slides as prepared above, including to the porcine brain tissue sections thereof (see above) with a HTX M5 sprayer (HTX Technologies, USA), spray parameters: temperature of spray nozzle/tray: 50° C./25° C., Spray nozzle velocity 1000 mm/min; nozzle height: 40 mm. Twenty passes with a flow rate of 60 μL/min and a pressure of 10 psi were sprayed. Optical images of the sprayed slides were then recorded before incubation and after incubation in an ultrafleXtreme™ MALDI TOF mass spectrometer (see above) for 21 hrs at about 35° C. and a vacuum of up to about 1.4×10^−7 mbar.

[5] = Dissolution of matrix compounds when preparing test solutions (Example 4a); assay type: physicochemical
Procedure: Conventional MALDI matrix compounds 2,5-dihydroxybenzoic acid (2,5-DHB); 1,5-diaminonaphthalene (1,5-DAN); 3-hydroxycoumarin (3-HC); […] (2,5-DHAP); 2-mercaptobenzothiazole (2-MBT) and dithranol, respectively, were dissolved in acetonitrile/water (1:1 v/v) at a concentration of 5 mg/mL. […] 1 μL of each resulting solution was pipetted onto an ITO glass slide. After droplets had dried in the air, a first optical image (Aperio CS2 Scanner, Leica Biosystems, Wetzlar, Germany) of the whole ITO slides at 0 min. was recorded. The slides were then incubated at about 35° C. and a vacuum between about 3.5×10^−6 mbar (t=0 min.) and about 1.4×10^−7 mbar (t=892 min.) in an ultrafleXtreme™ MALDI TOF mass spectrometer (Bruker Daltonics) equipped with a Smartbeam-II Nd:YAG laser (355 nm) for time periods of 18 min., 80 min. and 892 min., respectively. After each time interval, additional optical images were taken of the slides. For 2,5-dihydroxyacetophenone (2,5-DHAP) a similar test was performed with a diluted solution (2.5 mg/mL). […]

[6] = Solvent 5: Methanol/water (v/v 90/10)
[7] = Solvent 6: Methanol/water (v/v 90/10) + 0.1% trifluoroacetic acid
[8] = Solvent 7: Methanol/water (v/v 90/10) + 50 mM (final conc.) NH4HCO3
[9] = Solvent 8: Methanol/water (v/v 85/15)
[10] = Solvent 9: Methanol/water (v/v 85/15) + 0.1% trifluoroacetic acid
[11] = Solvent 10: Methanol/water (v/v 85/15) + 50 mM (final conc.) NH4HCO3
[12] = organic solvent or mixture, Solvent 1: Acetonitrile
[13] = organic solvent or mixture, Solvent 2: Acetonitrile/water (v/v 90/10)
[14] = organic solvent or mixture, Solvent 3: Acetonitrile/water (v/v 90/10) + 0.1% trifluoroacetic acid
[15] = organic solvent or mixture, Solvent 4: Acetonitrile/water (v/v 85/15) + 0.1% trifluoroacetic acid
[16] = Solvent 2: Acetonitrile/water (v/v 90/10)
[17] = Solvent 3: Acetonitrile/water (v/v 90/10) + 0.1% trifluoroacetic acid
[18] = Solvent 4: Acetonitrile/water (v/v 85/15) + 0.1% trifluoroacetic acid
[19] = organic solvent or mixture, Solvent 6: Methanol/water (v/v 90/10) + 0.1% trifluoroacetic acid
[20] = organic solvent or mixture, Solvent 5: Methanol/water (v/v 90/10)

Row | Structure (SMILES) | solubility (completely dissolved at 2.5 mg/mL) [1, 6] | solubility (completely dissolved at 2.5 mg/mL) [1, 7] | solubility (completely dissolved at 2.5 mg/mL) [1, 8] | solubility (completely dissolved at 2.5 mg/mL) [1, 9] | solubility (completely dissolved at 2.5 mg/mL) [1, 10] | solubility (completely dissolved at 2.5 mg/mL) [1, 11] | solubility [1, 12] [µg/mL] | solubility [1, 13] [µg/mL] | solubility [1, 14] [µg/mL] | solubility [1, 15] [µg/mL] | solubility in the solvents or solvent systems under review [1] | presence on ITO slides / porcine brain tissue sections after incubation under vacuum [4] | other results
1 | CC(=O)c1c(O)cccc1O [2,6-DHAP, 2,6-dihydroxyacetophenone] |  |  |  |  |  |  |  |  |  |  |  |  | sensitivity to vacuum conditions [2]: extremely sensitive to vacuum conditions and volatile
2 | COc1cc(COc2cc3ccccc3oc2=O)c([N+](=O)[O-])cc1OC [Ex. 1.3, 3-((4,5-Dimethoxy-2-nitrobenzyl)oxy)-2H-chromen-2-one] | ◯ | ◯ | ◯ | ◯ | ◯ | ◯ | > 2500 |  |  |  |  |  | solubility (completely dissolved at 2.5 mg/mL) [1, 16]: ◯; solubility (completely dissolved at 2.5 mg/mL) [1, 17]: ◯; solubility (completely dissolved at 2.5 mg/mL) [1, 18]: ◯
3 | COc1cc(CSc2nc3ccccc3s2)c([N+](=O)[O-])cc1OC [Ex. 1.5, 2-((4,5-Dimethoxy-2-nitrobenzyl)thio)benzo[d]thiazole] |  | ◯ | ◯ | ◯ | ◯ | ◯ | > 2500 | > 2500 | > 2500 | > 2500 | very good solubility |  | solubility [1, 20]: > 2500 µg/mL
4 | CC(=O)c1cc(O)ccc1O [2,5-DHAP, 2,5-dihydroxyacetophenone, reference compound] |  |  |  |  |  |  |  |  |  |  |  | completely evaporated | 
5 | Sc1nc2ccccc2s1 [2-MBT, 2-mercaptobenzothiazole, reference compound] |  |  |  |  |  |  |  |  |  |  |  |  | dissolution at a concentration of 5 mg/mL ([5]; acetonitrile/water (1:1 v/v), 5 mg/mL): not completely dissolved
6 | COc1cc(CNc2cccc3c(N)cccc23)c([N+](=O)[O-])cc1OC [Ex. 1.2, N^1-(4,5-dimethoxy-2-nitrobenzyl)naphthalene-1,5-diamine] |  |  |  |  |  |  | > 2500 | > 2500 | > 2500 | > 2500 | excellent solubility |  | solubility ([1]; methanol/water (v/v 85/15) + 50 mM NH4HCO3, organic solvent or mixture, Solvent 10: Methanol/water (v/v 85/15) + 50 mM (final conc.) NH4HCO3): > 2500 µg/mL; solubility ([1]; methanol/water (v/v 90/10) + 50 mM NH4HCO3, organic solvent or mixture, Solvent 7: Methanol/water (v/v 90/10) + 50 mM (final conc.) NH4HCO3): > 2500 µg/mL; solubility [1, 20]: > 2500 µg/mL; solubility [1, 19]: > 2500 µg/mL; solubility ([1]; organic solvent or mixture, Solvent 8: Methanol/water (v/v 85/15)): > 2500 µg/mL; solubility ([1]; organic solvent or mixture, Solvent 9: Methanol/water (v/v 85/15) + 0.1% trifluoroacetic acid): > 2500 µg/mL

More lines, main results first:

Row | solubility (completely dissolved at 2.5 mg/mL) [1, 6] | solubility (completely dissolved at 2.5 mg/mL) [1, 7] | solubility (completely dissolved at 2.5 mg/mL) [1, 8] | solubility (completely dissolved at 2.5 mg/mL) [1, 9] | solubility (completely dissolved at 2.5 mg/mL) [1, 10] | solubility (completely dissolved at 2.5 mg/mL) [1, 11] | solubility [1, 12] [µg/mL] | solubility [1, 13] [µg/mL] | solubility [1, 14] [µg/mL] | solubility [1, 15] [µg/mL] | solubility in the solvents or solvent systems under review [1] | presence on ITO slides / porcine brain tissue sections after incubation under vacuum [4] | Structure (SMILES) | other results
7 | ◯ | ◯ | ◯ | ◯ | ◯ | ◯ | > 2500 | > 2500 | > 2500 | > 2500 | very good solubility |  | COc1cc(COc2cccc(O)c2C(C)=O)c([N+](=O)[O-])cc1OC [Ex. 1.4, 1-(2-((4,5-Dimethoxy-2-nitrobenzyl)oxy)-6-hydroxyphenyl)ethan-1-one] | 
8 | ◯ | ◯ | ◯ | ◯ | ◯ | ◯ |  |  |  |  |  |  | COc1cc(COc2cccc3c2C(=O)c2c(O)cccc2C3)c([N+](=O)[O-])cc1OC [Ex. 1.6, 1-((4,5-Dimethoxy-2-nitrobenzyl)oxy)-8-hydroxyanthracen-9(10H)-one] | solubility (completely dissolved at 2.5 mg/mL) ([1]; Solvent 1: Acetonitrile): ◯; solubility (completely dissolved at 2.5 mg/mL) [1, 16]: ◯; solubility (completely dissolved at 2.5 mg/mL) [1, 17]: ◯; solubility (completely dissolved at 2.5 mg/mL) [1, 18]: ◯
9 | ◯ |  | ◯ | ◯ | ◯ | ◯ | > 2500 | > 2500 | > 2500 | > 2500 | very good solubility | best results | COc1cc(COc2ccc(O)c(C(C)=O)c2)c([N+](=O)[O-])cc1OC [Ex. 1.1, 1-(5-((4,5-Dimethoxy-2-nitrobenzyl)oxy)-2-hydroxyphenyl)ethan-1-one] | average size of the resulting crystals [3]: about 1 μm; solubility [1, 19]: > 2500 µg/mL
10 |  |  |  |  |  |  |  |  |  |  |  | best results | COc1cc(COC(=O)Oc2ccc(O)c(C(C)=O)c2)c([N+](=O)[O-])cc1OC [Ex. 1.9, 3-Acetyl-4-hydroxyphenyl (4,5-dimethoxy-2-nitrobenzyl) carbonate] | concentration of saturated solution ([5]; acetonitrile/water 8:2 (v/v)+0.1% trifluoroacetic acid): < 2500 µg/mL
